Results published in patent US20250049796A1, “USE OF 4-THIAZOL-N-(PYRIDIN-2-YL)PYRIMIDIN-2-AMINE DERIVATIVES IN COMBINATION THERAPIES FOR CANCER” (Aucentra Therapeutics Pty Ltd, priority 2022, published 2025).

Experiments:
[1] = system: CT26.WT colorectal cancer cells; experiment: In vivo anti-tumour activity in CT26.WT syngeneic mouse model (second experiment)
Description: (§1) Murine triple-negative breast cancer EMT6 tumour cells (ATCC® CRL-2755™) and colorectal cancer CT26.WT cells (ATCC® CRL-2638™) were cultured and expanded in RPMI-1640 medium (Roswell Park Memorial Institute Medium-1640) with L-glutamine and sodium bicarbonate (Sigma-Aldrich, Macquarie Park, NSW, Australia) supplemented with 10% heat-inactivated foetal bovine serum (FBS). Cells were cultured in an incubator at 5% CO2 37° C.
(§2) In another experiment, mice bearing CT26.WT colorectal cancer cells were treated with vehicle (distilled water QD PO), compound 1 (100 mg/kg QD PO), an anti-PD-1 antibody ([…] ip), or compound 1 plus the anti-PD-1 antibody.

[2] = system: phosphorylated RB (p-S807/11); experiment: Phosphorylated RB level in EMT6 tumours of treated mice; type: in vivo, mouse (female BALB/c); details: EMT6 tumours collected two hours post-final dose, 150 mg/kg QD PO
Description: (§3) EMT6 cells were harvested and re-suspended in a 1:1 mixture of Matrigel™ (#354234; Corning Life Sciences, Corning, NY, United States of America) and serum-free RPMI-1640 medium, and thereafter injected sub-cutaneously (sc) (7×10^5 cells in a volume of […]) into the right flank of each female BALB/c mouse. After the tumour volume reached ˜100 mm^3, the mice were randomised into two groups (n=4/group) and given vehicle (1% CMC in water), or compound 1 (150 mg/kg) once daily by oral administration (QD PO). […] The level of phosphorylated RB (p-S807/11) was also found to be reduced in the EMT6 tumours collected two hours post-final dose, confirming CDK4/6 inhibition (FIG. 1B). A reduction in the […], PDL-1, in the spleen samples of the mice isolated two hours post-final dose was also observed, indicating the immunotherapeutic potential of compound 1 (FIG. 1C).

[3] = system: CT26.WT colorectal cancer cells; experiment: In vivo anti-tumour activity in mice with a colorectal cancer cell syngeneic allograft (first experiment); set-up: species or system mouse (female BALB/c)
Description: as §1
Similarly, mice bearing CT26.WT colorectal cancer cells were matched and randomised to vehicle or treatment groups (n=8/group). Female BALB/c mice with mean tumour volume ˜100 mm^3 were given vehicle (distilled water QD PO), compound 1 (100 mg/kg QD PO), an anti-PD1 antibody (RMP1-14-derived mouse monoclonal antibody; Assay Matrix Pty Ltd, Ivanhoe North, VIC, Australia), 200 μg/mouse/week by intraperitoneal (ip) administration) or compound 1 plus anti-PD-1 antibody.

[4] = system: CD3+, CD4+, CDK8+ and CD45+ T-cells; experiment: Immune markers (T cell population in spleen) in CT26.WT-bearing treated mice; type: in vivo, mouse
Description: as §2

PDL-1 = experiment: PD-L1 level in samples of EMT6-bearing treated mice; type: in vivo, mouse (female BALB/c); details: spleen samples isolated two hours post-final dose, 150 mg/kg QD PO
Description: as §3

[5] = system: EMT6 triple-negative breast cancer cells; experiment: In vivo anti-tumour activity in mice with a breast cancer cell syngeneic allograft; details: 150 mg/kg QD PO
Description: as §1, §3

Compound | TGI, used alone ([1]; 100 mg/kg QD PO alone, day 15 of dosing) | TGI, combination with anti-PD-1 antibody ([1]; 100 mg/kg QD PO plus anti-PD-1 antibody (150 g/mouse/week ip), day 15 of dosing) | anti-tumour efficacy of combination compared with anti-PD-1 alone ([1]; compound 1 plus anti-PD-1 antibody, p=0.03) | level of phosphorylated RB (p-S807/11) [2] | tumour growth inhibition (% TGI), used alone ([3]; 100 mg/kg QD PO alone, day 21 of dosing) | tumour growth inhibition (% TGI), combination with anti-PD-1 antibody ([3]; 100 mg/kg QD PO plus anti-PD-1 antibody 200 μg/mouse/week ip, day 21 of dosing) | survival of the mice, combination with anti-PD-1 antibody ([3]; 100 mg/kg QD PO plus anti-PD-1 antibody, p<0.001) | survival of the mice, single agent ([3]; 100 mg/kg QD PO, p<0.001) | level of immune markers CD3+, CD4+, CDK8+ and CD45+ T-cells [4] | level of immune checkpoint protein ligand PDL-1 (PDL-1) | weight loss or overt toxicity ([5]; EMT6-bearing mice, throughout the study) | tumour growth inhibition (% TGI) ([5]; EMT6 allograft, final day of tumour measurement)
CCN1CCN(Cc2ccc(Nc3ncc(F)c(-c4sc(NC5CCCC5)nc4C)n3)nc2)CC1 [Compound 1, N-cyclopentyl-5-(2-((5-((4-ethylpiperazin-1-yl)methyl)pyridin-2-yl)amino)-5-fluoropyrimidin-4-yl)-4-methylthiazol-2-amine] | 77% | 91% | more effective | reduced | 75% | 91% | significantly prolong | significantly prolong | increased level | reduction | No significant weight loss or any overt toxicity | –
CNc1nc(C)c(-c2nc(Nc3ccc(CN4CCN(C(C)C)CC4)cn3)ncc2F)s1 [Compound 12, 5-(5-fluoro-2-((5-((4-isopropylpiperazin-1-yl)methyl)pyridin-2-yl)amino)pyrimidin-4-yl)-N,4-dimethylthiazol-2-amine] | – | – | – | – | – | – | – | – | – | – | – | 47%
